Experimental data published in patent US20130102595A1 (Curis, Inc., priority 2011, published 2013).

How the values were obtained:
[1] = system: HDACs (HeLa cell nuclear extracts); test: HDAC enzymatic activity, Biomol Color de Lys system; type: biochemical; settings: 1 hour, 25° C.
In short: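 HeLa nuclear extract incubated with serially diluted compound and […] artificial substrate in 50 mM Tris/Cl pH 8.0, 137 mM NaCl, 2.7 mM KCl, 1 mM MgCl2. Run 1 h at 25 °C, stopped with developer. Fluorescence read (ex 350-380, em 440-460 nm); IC50 from sigmoidal dose-response fit.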

PI3Kα (p110α/p85α) = target: T1, PI3Kα (p110α/p85α) (Homo sapiens, UniProt P42336); test: PI3Kα ADP-Glo assay; type: biochemical; settings: 20 μM PIP2, 10 μM ATP, 30 minutes
T1 construct: GST (N); made in house; host or cells: Baculovirus-infected Sf9 cells
T1 sequence (P42336 whole entry): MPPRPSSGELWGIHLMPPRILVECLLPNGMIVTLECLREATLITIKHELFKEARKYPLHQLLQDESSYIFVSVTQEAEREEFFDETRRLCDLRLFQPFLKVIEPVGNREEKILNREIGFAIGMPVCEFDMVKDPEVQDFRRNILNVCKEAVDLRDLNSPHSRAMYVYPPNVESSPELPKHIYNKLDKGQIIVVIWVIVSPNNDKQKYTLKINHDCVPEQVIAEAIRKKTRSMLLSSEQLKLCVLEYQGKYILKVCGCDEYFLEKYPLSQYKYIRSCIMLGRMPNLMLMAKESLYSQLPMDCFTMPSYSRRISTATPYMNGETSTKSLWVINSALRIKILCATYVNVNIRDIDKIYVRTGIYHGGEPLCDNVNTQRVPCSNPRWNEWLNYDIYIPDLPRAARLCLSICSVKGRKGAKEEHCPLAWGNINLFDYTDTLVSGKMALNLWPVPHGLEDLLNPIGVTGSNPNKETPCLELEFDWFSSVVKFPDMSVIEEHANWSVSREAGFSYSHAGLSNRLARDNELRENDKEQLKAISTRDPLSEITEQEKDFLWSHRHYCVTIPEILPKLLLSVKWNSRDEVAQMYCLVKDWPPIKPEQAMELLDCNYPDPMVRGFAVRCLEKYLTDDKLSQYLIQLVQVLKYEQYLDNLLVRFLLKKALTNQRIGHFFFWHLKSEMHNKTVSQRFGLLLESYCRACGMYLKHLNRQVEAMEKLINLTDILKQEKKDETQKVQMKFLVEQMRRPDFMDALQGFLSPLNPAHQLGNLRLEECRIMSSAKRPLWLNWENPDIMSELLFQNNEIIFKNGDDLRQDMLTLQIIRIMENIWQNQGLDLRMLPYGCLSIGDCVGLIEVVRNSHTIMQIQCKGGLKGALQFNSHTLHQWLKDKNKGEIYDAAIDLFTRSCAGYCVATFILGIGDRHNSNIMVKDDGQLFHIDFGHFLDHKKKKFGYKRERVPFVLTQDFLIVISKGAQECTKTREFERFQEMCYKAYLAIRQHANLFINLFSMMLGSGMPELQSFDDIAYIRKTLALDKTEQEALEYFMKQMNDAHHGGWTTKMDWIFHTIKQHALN
T1 sequence (P27986 whole entry partner): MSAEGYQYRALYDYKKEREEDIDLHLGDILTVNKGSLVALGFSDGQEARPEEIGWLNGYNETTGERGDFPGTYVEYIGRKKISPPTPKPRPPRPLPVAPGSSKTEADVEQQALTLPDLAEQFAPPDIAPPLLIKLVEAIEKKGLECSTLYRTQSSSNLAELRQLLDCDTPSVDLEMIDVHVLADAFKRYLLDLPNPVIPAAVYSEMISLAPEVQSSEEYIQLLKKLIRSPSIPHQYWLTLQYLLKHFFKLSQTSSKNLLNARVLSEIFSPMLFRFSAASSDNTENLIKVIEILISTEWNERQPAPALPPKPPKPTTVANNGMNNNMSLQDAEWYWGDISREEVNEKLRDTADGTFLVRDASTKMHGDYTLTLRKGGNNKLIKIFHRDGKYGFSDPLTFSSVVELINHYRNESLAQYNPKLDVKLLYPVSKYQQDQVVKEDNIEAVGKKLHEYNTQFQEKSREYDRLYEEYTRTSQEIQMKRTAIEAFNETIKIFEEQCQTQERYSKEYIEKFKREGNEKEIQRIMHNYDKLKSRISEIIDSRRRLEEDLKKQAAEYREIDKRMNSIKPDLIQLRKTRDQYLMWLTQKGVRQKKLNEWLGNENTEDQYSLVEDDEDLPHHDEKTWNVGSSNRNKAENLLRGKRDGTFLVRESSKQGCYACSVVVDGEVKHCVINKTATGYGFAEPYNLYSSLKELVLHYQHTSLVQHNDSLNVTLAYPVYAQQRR
In short: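 Recombinant full-length human GST-p110α/His-p85α, co-expressed in Sf9 cells, was incubated 30 min at room temperature with 20 μM PIP2 and 10 μM ATP. The buffer was 50 mM HEPES pH 7.4, 150 mM NaCl, 5 mM MgCl2, 1 mM DTT, 3 µM orthovanadate and 0.5% DMSO. ADP formed was detected by ADP-Glo luminescence.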

Calu6 = test: Cell proliferation assay (CellTiter-Glo); type: cell-based; settings: Homo sapiens, Calu-6; NSCLC; 72 hours, 0.5% fetal bovine serum; read-out: antiproliferative activity IC50, Calu6
In short: (§1)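 Cells seeded at 5,000 to 10,000 per well were exposed to a range of compound concentrations for 72 hours in 0.5% fetal bovine serum. Growth inhibition was then determined from ATP content by luciferase luminescence after a 30-minute lysis incubation.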

CFPAC-1 = test: Cell proliferation assay (CellTiter-Glo); type: cell-based; settings: Homo sapiens, Pancreas, 72 hours, 0.5% fetal bovine serum, read-out: antiproliferative activity IC50, CFPAC-1
In short: as §1

SW1990 = test: Cell proliferation assay (CellTiter-Glo); type: cell-based; settings: Homo sapiens, Pancreas, 72 hours, 0.5% fetal bovine serum, read-out: antiproliferative activity IC50, SW1990
In short: as §1

MiaPaca1 = test: Cell proliferation assay (CellTiter-Glo); type: cell-based; settings: Pancreas; 72 hours, 0.5% fetal bovine serum; read-out: antiproliferative activity IC50, MiaPaca1
In short: as §1

H460 = test: Cell proliferation assay (CellTiter-Glo); type: cell-based; settings: Homo sapiens, NCI-H460; NSCLC; 72 hours, 0.5% fetal bovine serum; read-out: antiproliferative activity IC50, H460
In short: as §1

PANC-1 = test: Cell proliferation assay (CellTiter-Glo); type: cell-based; settings: Homo sapiens, Pancreas, 72 hours, 0.5% fetal bovine serum, read-out: antiproliferative activity IC50, PANC-1
In short: as §1

CaPan2 = test: Cell proliferation assay (CellTiter-Glo); type: cell-based; settings: Homo sapiens, Capan-2; Pancreas; 72 hours, 0.5% fetal bovine serum; read-out: antiproliferative activity IC50, CaPan2
In short: as §1

WiDr = test: Cell proliferation assay (CellTiter-Glo); type: cell-based; settings: Homo sapiens, Colon, 72 hours, 0.5% fetal bovine serum, read-out: antiproliferative activity IC50, WiDr
In short: as §1

HCT116 = test: Cell proliferation assay (CellTiter-Glo); type: cell-based; settings: Homo sapiens, HCT-116; Colon; 72 hours, 0.5% fetal bovine serum; read-out: antiproliferative activity IC50, HCT116
In short: as §1

MDA-MB-231 = test: Cell proliferation assay (CellTiter-Glo); type: cell-based; settings: Homo sapiens, Breast, 72 hours, 0.5% fetal bovine serum, read-out: antiproliferative activity IC50, MDA-MB-231
In short: as §1

IC50 [1] [nM] | IC50 (PI3Kα (p110α/p85α)) [nM] | IC50 (Calu6) [nM] | IC50 (SW1990) [nM] | IC50 (MiaPaca1) [nM] | IC50 (H460) [nM] | IC50 (PANC-1) [nM] | IC50 (HCT116) [nM] | IC50 (MDA-MB-231) [nM] | SMILES | IC50 (CFPAC-1) [nM] | IC50 (CaPan2) [nM] | IC50 (WiDr) [nM]
< 100 | < 100 | < 10 | < 10 | < 10 | 10 to 100 | 10 to 100 | < 10 | < 10 | CN(Cc1cc2nc(-c3ccc(N)cc3)nc(N3CCOCC3)c2s1)c1ncc(C(=O)NO)cn1 [Compound 150, 2-(((2-(4-aminophenyl)-4-morpholinothieno[3,2-d]pyrimidin-6-yl)methyl)(methyl)amino)-N-hydroxypyrimidine-5-carboxamide] | 10 to 100 | < 10 | 10 to 100
< 100 | < 100 | 10 to 100 | 10 to 100 | 10 to 100 | 100 to 1000 | 10 to 100 | < 10 | 10 to 100 | CN(Cc1cc2nc(-c3cccc4[nH]ncc34)nc(N3CCOCC3)c2s1)c1ncc(C(=O)NO)cn1 [Compound 54, 2-(((2-(1H-indazol-4-yl)-4-morpholinothieno[3,2-d]pyrimidin-6-yl)methyl)(methyl)amino)-N-hydroxypyrimidine-5-carboxamide] | 100 to 1000 | 10 to 100 | 10 to 100
< 100 | < 100 | 10 to 100 | < 10 | < 10 | 10 to 100 | 10 to 100 | < 10 | 100 to 1000 | CNc1ccc(-c2nc(N3CCOCC3)c3sc(CN(C)c4ncc(C(=O)NO)cn4)cc3n2)cn1 [Compound 111, N-Hydroxy-2-(methyl((2-(6-(methylamino)pyridin-3-yl)-4-morpholinothieno[3,2-d]pyrimidin-6-yl)methyl)amino)pyrimidine-5-carboxamide] | 10 to 100 | 10 to 100 | 10 to 100
